In ChEMBL document CHEMBL1158244, “A new norcembranoid dimer from the red sea soft coral Sinularia gardineri” (1996):

What was measured:
Format in all cases: functional
[1] = tested on: Cryptococcus neoformans; test: Antifungal activity against Cryptococcus neoformans at 1 mg/mL; details: read-out: IZ
[2] = tested on: Candida albicans; test: Antifungal activity against Candida albicans B311 at 1 mg/mL; details: read-out: IZ
[3] = tested on: A549; test: Cytotoxicity against human A549 cells
[4] = tested on: SK-MEL-28; test: Cytotoxicity against human SK-MEL-28 cells
[5] = tested on: P388; test: Cytotoxicity against mouse P388 cells
[6] = tested on: HT-29; test: Cytotoxicity against human HT29 cells

Row | SMILES | zone of inhibition at 1000 µg/mL [1] [mm] | zone of inhibition at 1000 µg/mL [2] [mm] | Activity [3] [µg/mL] | Activity [4] [µg/mL] | Activity [5] [µg/mL] | Activity [6] [µg/mL]
1 | C[C@@H]1[C@H](O)[C@@H](C)/C=C/C=C/C=C/C=C/C=C/C=C/C=C/[C@H](O[C@@H]2O[C@H](C)[C@@H](O)[C@H](N)[C@@H]2O)C[C@@H]2O[C@](O)(C[C@@H](O)C[C@@H](O)[C@H](O)CC[C@@H](O)C[C@@H](O)CC(=O)O[C@H]1C)C[C@H](O)[C@H]2C(=O)O [AMPHOTERICIN B] | 10 | 12 |  |  |  | 
2 | CC(C)C1=C[C@@H]2[C@H](CC[C@@]2(C)O)[C@@](C)(O)CC1 [GUAIANEDIOL] |  |  | 2.5 | 5 | 1 | 5
3 | C=C(C)[C@H]1CC[C@@]23O[C@@H]2[C@@H](C[C@@]2(C)CC(=O)[C@H](CC(=O)C1)O2)OC(=O)[C@@]12CC[C@H](C(=C)C)CC(=O)C[C@H]4O[C@](C)(CC4=O)C[C@@H](OC3=O)[C@@H]1O2 [SINGARDIN] | 3 | 3 | 2.5 | 5 | 1 | 5
